Laboratory results: US20240217990A1 (Gilead Sciences, Inc., priority 2021, published 2024)

Experiments:
TLR8 = biological target: T1, TLR8 (Homo sapiens, UniProt Q9NR97); experiment: TLR8 human PBMC cell-based assay (antagonist, Compound A stimulated cytokine release); settings: human PBMCs; TLR8 agonist Compound A 800 nM, 6 hours; cytokines (TNFa and IL 12p40) in supernatant; read-out: TLR-8 EC50
T1 construct: Human peripheral blood mononuclear cells (PBMCs) consist of lymphocytes, monocytes and dendritic cells that express TLR7, TLR8 and TLR9; endogenous in cells; host or cells: cryopreserved human PBMCs from healthy donors
T1 sequence (Q9NR97 27-1041): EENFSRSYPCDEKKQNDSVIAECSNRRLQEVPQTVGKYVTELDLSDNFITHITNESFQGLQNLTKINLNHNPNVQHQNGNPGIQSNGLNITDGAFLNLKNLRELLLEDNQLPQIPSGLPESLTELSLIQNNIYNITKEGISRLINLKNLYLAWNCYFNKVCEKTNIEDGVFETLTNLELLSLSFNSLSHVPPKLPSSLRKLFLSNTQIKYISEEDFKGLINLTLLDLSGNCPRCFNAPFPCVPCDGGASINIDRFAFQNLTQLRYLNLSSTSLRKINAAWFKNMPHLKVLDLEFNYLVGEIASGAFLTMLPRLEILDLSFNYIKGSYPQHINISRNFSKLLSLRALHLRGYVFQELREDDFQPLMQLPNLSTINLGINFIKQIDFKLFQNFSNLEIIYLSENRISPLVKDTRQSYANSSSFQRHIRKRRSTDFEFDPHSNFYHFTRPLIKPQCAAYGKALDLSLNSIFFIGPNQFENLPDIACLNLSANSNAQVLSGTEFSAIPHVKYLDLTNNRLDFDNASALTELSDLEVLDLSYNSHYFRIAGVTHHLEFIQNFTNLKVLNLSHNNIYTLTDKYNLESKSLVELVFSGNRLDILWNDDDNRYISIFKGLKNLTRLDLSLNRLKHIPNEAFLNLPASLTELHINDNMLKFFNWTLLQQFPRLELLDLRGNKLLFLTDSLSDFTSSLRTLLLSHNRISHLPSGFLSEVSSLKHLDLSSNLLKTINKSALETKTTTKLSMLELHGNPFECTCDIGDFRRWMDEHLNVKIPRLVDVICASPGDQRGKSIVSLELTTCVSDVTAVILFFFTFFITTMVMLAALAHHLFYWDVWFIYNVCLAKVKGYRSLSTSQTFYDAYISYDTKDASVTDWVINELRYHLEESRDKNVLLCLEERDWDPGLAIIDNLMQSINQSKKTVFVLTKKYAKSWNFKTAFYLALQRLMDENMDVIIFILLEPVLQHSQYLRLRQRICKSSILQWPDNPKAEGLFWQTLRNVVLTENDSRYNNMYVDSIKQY
Outline: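 Cryopreserved donor PBMCs (100,000/well, RPMI + 10% FBS) were preincubated 1 h with antagonist (10-point dose response, quadruplicate), then stimulated with Compound A (800 nM final) for 6 h at 37 °C. TNFa and IL-12p40 in supernatants were measured by electrochemiluminescence; sigmoidal fits gave EC50.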

TLR7 = biological target: T2, TLR7 (Homo sapiens, UniProt Q9NYK1); experiment: TLR7 human PBMC cell-based assay (antagonist, GS-986 stimulated cytokine release); settings: human PBMCs; TLR7 agonist GS-986 400 nM, 6 hours; cytokines (IL-6 and IFNα) in supernatant; read-out: TLR-7 EC50
T2 construct: Human peripheral blood mononuclear cells (PBMCs) consist of lymphocytes, monocytes and dendritic cells that express TLR7, TLR8 and TLR9; endogenous in cells; host or cells: cryopreserved human PBMCs from healthy donors
T2 sequence (Q9NYK1 27-1049): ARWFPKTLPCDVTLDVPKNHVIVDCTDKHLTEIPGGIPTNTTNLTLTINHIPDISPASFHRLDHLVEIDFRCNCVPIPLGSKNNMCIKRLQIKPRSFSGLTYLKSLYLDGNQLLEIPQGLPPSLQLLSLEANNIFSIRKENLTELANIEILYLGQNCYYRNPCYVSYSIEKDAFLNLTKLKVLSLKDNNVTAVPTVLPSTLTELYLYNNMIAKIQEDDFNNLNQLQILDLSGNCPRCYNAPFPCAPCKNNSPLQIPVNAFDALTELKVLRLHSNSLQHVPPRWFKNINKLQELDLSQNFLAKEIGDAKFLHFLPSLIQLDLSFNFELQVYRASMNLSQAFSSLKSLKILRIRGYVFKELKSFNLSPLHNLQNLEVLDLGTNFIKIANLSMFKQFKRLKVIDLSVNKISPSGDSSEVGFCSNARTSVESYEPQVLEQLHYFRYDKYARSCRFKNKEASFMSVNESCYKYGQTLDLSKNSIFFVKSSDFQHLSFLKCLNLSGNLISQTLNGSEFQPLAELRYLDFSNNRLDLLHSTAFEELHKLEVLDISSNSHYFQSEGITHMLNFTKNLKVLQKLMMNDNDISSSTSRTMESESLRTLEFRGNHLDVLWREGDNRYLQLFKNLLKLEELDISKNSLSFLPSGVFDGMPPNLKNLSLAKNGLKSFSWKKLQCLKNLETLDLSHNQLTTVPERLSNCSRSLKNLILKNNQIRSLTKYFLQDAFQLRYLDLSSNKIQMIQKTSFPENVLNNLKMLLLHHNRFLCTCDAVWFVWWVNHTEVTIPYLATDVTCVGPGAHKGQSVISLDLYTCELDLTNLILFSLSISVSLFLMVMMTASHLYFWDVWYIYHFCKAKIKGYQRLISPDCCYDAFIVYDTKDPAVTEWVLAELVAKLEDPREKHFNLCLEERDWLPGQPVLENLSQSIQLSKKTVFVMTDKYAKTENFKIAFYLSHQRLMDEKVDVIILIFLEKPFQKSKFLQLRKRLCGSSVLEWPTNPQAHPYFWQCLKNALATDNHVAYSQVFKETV
Outline: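 Cryopreserved healthy-donor PBMCs (100,000/well, RPMI-1640 + 10% FBS) pre-incubated 1 h at 37 °C with antagonist (10-point dose response, quadruplicate), then stimulated 6 h with GS-986 at 400 nM final. Supernatant IL-6 and IFNα measured by electrochemiluminescence immunoassay; EC50 from sigmoidal fit.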

| SMILES | EC50 (TLR8) | EC50 (TLR7) |
| --- | --- | --- |
| Cc1cc(-c2[nH]c3cc(C(=O)N4CCC[C@H]5NCC[C@H]54)sc3c2C(C)C)cn2ncnc12 [Example 108] | 2.8 nM | 0.6 nM |
| Cc1cc(-c2[nH]c3cc(C(=O)N4CCCC5CNCC54)sc3c2C(C)C)cn2ncnc12 (stereo not shown) [Example 109] | 18.2 nM | 1.4 nM |
| Cc1cc(-c2[nH]c3cc(C(=O)N4CCC[C@H]5NCCC[C@H]54)sc3c2C(C)C)cn2ncnc12 [Example 110] | 0.8 nM | 0.1 nM |
| Cc1cc(-c2[nH]c3cc(C(=O)N4CCCC(CN)C4)sc3c2C(C)C)cn2ncnc12 (stereo not shown) [Example 111] | 7.2 nM | 1.5 nM |
| Cc1cc(-c2[nH]c3cc(C(=O)N4CCCC(CN(C)C)C4)sc3c2C(C)C)cn2ncnc12 (stereo not shown) [Example 112] | 6.4 nM | 2.9 nM |
| Cc1cc(-c2[nH]c3cc(C(=O)N(C)CC4CCNCC4)sc3c2C(C)C)cn2ncnc12 [Example 113] | 54.5 nM | 3.7 nM |
| Cc1cc(-c2[nH]c3cc(C(=O)N4CC(N)C4)sc3c2C(C)C)cn2ncnc12 [Example 114] | 7.5 nM | 12.7 nM |
| Cc1cc(-c2[nH]c3cc(C(=O)N(C)C4CNC4)sc3c2C(C)C)cn2ncnc12 [Example 115] | 38 nM | 3 nM |
| Cc1cc(-c2[nH]c3cc(C(=O)N4CCNC[C@H]4c4ccccc4)sc3c2C(C)C)cn2ncnc12 [Example 116] | 14 nM | 16.2 nM |
| Cc1cc(-c2[nH]c3cc(C(=O)N4CCNCC4c4ccc(C(F)(F)F)cc4)sc3c2C(C)C)cn2ncnc12 (stereo not shown) [Example 117] | 47.8 nM | 209 nM |
| Cc1cc(-c2[nH]c3cc(C(=O)N4CCn5c(nnc5C(F)(F)F)C4)sc3c2C(C)C)cn2ncnc12 [Example 118] | 47.8 nM | 18.9 nM |
| Cc1cc(-c2[nH]c3cc(C(=O)N4CCN[C@@H](c5ccccc5)C4)sc3c2C(C)C)cn2ncnc12 [Example 119] | 0.3 nM | 42.4 nM |
| Cc1cc(-c2[nH]c3cc(C(=O)N4CCC5(CCNCC5)C4)sc3c2C(C)C)cn2ncnc12 [Example 120] | 19.4 nM | 13 nM |
| Cc1cc(-c2[nH]c3cc(C(=O)N4CCC5(CCNC5)CC4)sc3c2C(C)C)cn2ncnc12 [Example 121] | 9 nM | 1.2 nM |
| Cc1cc(-c2[nH]c3cc(C(=O)N4CCN[C@@H](CO)C4)sc3c2C(C)C)cn2ncnc12 [Example 122] | 2.6 nM | 0.9 nM |
| Cc1cc(-c2[nH]c3cc(C(=O)N4C[C@@H](C)NC[C@@H]4C)sc3c2C(C)C)cn2ncnc12 [Example 123] | 0.5 nM | 1.3 nM |
| Cc1cc(-c2[nH]c3cc(C(=O)N4C[C@H](C)NC[C@H]4C)sc3c2C(C)C)cn2ncnc12 [Example 124] | 1.7 nM | 0.5 nM |
| Cc1cc(-c2[nH]c3cc(C(=O)N4CCN[C@@H](C)C4)sc3c2C(C)C)cn2ncnc12 [Example 125] | 0.3 nM | 1.2 nM |
| Cc1cc(-c2[nH]c3cc(C(=O)N4CC5(CCNCC5)C4)sc3c2C(C)C)cn2ncnc12 [Example 126] | 15.7 nM | 2.5 nM |

| SMILES | EC50 (TLR8) | EC50 (TLR7) |
| --- | --- | --- |
| Cc1cc(-c2[nH]c3cc(C(=O)N4C[C@@H](C)N[C@H](C)C4)sc3c2C(C)C)cn2ncnc12 [Example 127] | 0.5 nM | 1.5 nM |
| Cc1cc(-c2[nH]c3cc(C(=O)N4CCN[C@H](C)C4)sc3c2C(C)C)cn2ncnc12 [Example 128] | 0.8 nM | 1.1 nM |
| Cc1cc(-c2[nH]c3cc(C(=O)N4CCN[C@H](c5ccccc5)C4)sc3c2C(C)C)cn2ncnc12 [Example 129] | 2.2 nM | 18.1 nM |
| Cc1cc(-c2[nH]c3cc(C(=O)N4CCNC(C(F)F)C4)sc3c2C(C)C)cn2ncnc12 (stereo not shown) [Example 130] | 28.6 nM | 40.7 nM |
| Cc1cc(-c2[nH]c3cc(C(=O)N4C[C@H]5NCCO[C@@H]5C4)sc3c2C(C)C)cn2ncnc12 [Example 131] | 6.7 nM | 21 nM |
| Cc1cc(-c2[nH]c3cc(C(=O)N4C[C@@H]5NCCO[C@@H]5C4)sc3c2C(C)C)cn2ncnc12 [Example 132] | 26.9 nM | 33.7 nM |
| Cc1cc(-c2[nH]c3cc(C(=O)N(C)C4CCN(CC(F)F)CC4)sc3c2C(C)C)cn2ncnc12 [Example 134] | 94.1 nM | 88.7 nM |
| CCN(C(=O)c1cc2[nH]c(-c3cc(C)c4ncnn4c3)c(C(C)C)c2s1)C1CCNCC1 [Example 135] | 9.9 nM | 0.4 nM |
| Cc1cc(-c2[nH]c3cc(C(=O)N(C)CCN(C)C)sc3c2C(C)C)cn2ncnc12 [Example 136] | 29.8 nM | 0.7 nM |
| Cc1cc(-c2[nH]c3cc(C(=O)N(C)Cc4cccnc4)sc3c2C(C)C)cn2ncnc12 [Example 137] | 137 nM | 44.3 nM |
| Cc1cc(-c2[nH]c3cc(C(=O)N(C)C4CCN(C5COC5)CC4)sc3c2C(C)C)cn2ncnc12 [Example 139] | 10.8 nM | 15 nM |
| Cc1cc(-c2[nH]c3cc(C(=O)N(C)C4CCN(CCO)CC4)sc3c2C(C)C)cn2ncnc12 [Example 141] | 2.7 nM | 1.3 nM |
| Cc1cc(-c2[nH]c3cc(C(=O)N(C4CCNCC4)C4CC4)sc3c2C(C)C)cn2ncnc12 [Example 143] | 27 nM | 0.7 nM |
| Cc1cc(-c2[nH]c3cc(C(=O)N4CC[C@@H](N(C)C)C4)sc3c2C(C)C)cn2ncnc12 [Example 144] | 1.1 nM | 5.4 nM |
| Cc1cc(-c2[nH]c3cc(C(=O)N4CCC[C@H]4CN)sc3c2C(C)C)cn2ncnc12 [Example 145] | 46.3 nM | 3.8 nM |
| Cc1cc(-c2[nH]c3cc(C(=O)N4CC[C@@H](CN)C4)sc3c2C(C)C)cn2ncnc12 [Example 146] | 27.2 nM | 19 nM |
| Cc1cc(-c2[nH]c3cc(C(=O)N4CC(N(C)C)C4)sc3c2C(C)C)cn2ncnc12 [Example 147] | 2.4 nM | 152 nM |
| Cc1cc(-c2[nH]c3cc(C(=O)N4CCNC[C@H]4C)sc3c2C(C)C)cn2ncnc12 [Example 148] | 11 nM | 4.8 nM |
| Cc1cc(-c2[nH]c3cc(C(=O)N4CCNC[C@@H]4C)sc3c2C(C)C)cn2ncnc12 [Example 149] | 10.5 nM | 2.8 nM |
